Laboratory results published in patent publication US4868210A, “Antihyperlipidemic and antiatherosclerotic compounds and compositions” (priority 1988, dated 1989).

target: T1, acyl-CoA:cholesterol acyltransferase (ACAT) (Oryctolagus cuniculus, UniProt G1SFD9); assay: In vitro ACAT inhibition (radiolabeled cholesterol oleate formation from radiolabeled oleic acid in rabbit intestinal microsomes); format: biochemical; conditions: concentration required to inhibit 50% the acylation of cholesterol by oleic acid
T1 construct: tissue preparation containing rabbit intestinal microsomes; from tissue; host or cells: rabbit intestinal microsomes
T1 sequence (G1SFD9 1-524): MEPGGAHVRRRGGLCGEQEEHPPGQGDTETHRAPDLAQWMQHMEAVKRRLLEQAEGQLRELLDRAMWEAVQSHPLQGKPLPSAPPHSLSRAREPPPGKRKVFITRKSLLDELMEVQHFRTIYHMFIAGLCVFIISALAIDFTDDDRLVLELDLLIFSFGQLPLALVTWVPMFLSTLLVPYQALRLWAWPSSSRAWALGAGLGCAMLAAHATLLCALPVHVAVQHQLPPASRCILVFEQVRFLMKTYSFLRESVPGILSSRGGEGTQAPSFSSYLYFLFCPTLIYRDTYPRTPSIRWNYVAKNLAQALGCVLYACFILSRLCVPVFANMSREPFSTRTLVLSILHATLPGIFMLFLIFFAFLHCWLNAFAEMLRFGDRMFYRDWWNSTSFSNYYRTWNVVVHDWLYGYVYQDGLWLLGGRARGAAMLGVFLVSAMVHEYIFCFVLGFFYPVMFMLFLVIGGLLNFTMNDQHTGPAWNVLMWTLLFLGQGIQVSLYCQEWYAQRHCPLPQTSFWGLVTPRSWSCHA
Protocol: The ability of representative compounds of the present invention to inhibit ACAT was measured using an in vitro test more fully described in Field, F. J. and Salone, R. G., Biochemica et Biophysica 712: 557-570 (1982). The test assesses the ability of a test compound to inhibit the acylation of cholesterol by oleic acid by measuring the amount of radiolabeled cholesterol oleate formed from radiolabeled oleic acid in a tissue preparation containing rabbit intestinal microsomes.

Row | SMILES | IC50 [nM]
1 | CC(C)c1cccc(C(C)C)c1NC(=O)NCC1c2ccccc2-c2ccccc21 [Example 1, N-[2,6-bis(1-methylethyl)phenyl]-N'-(9H-fluoren-9-ylmethyl)urea] | 27
2 | CC(C)c1cccc(C(C)C)c1NC(=O)NC1CC(C)(C)c2ccccc2C1(C)C (stereo not shown) [Example 13, N-[2,6-bis(1-methylethyl)phenyl]-N'-(1,2,3,4-tetrahydro-1,1,4,4-tetramethyl-2-naphthalenyl)urea] | 89
3 | CC(C)c1cccc(C(C)C)c1NC(=O)NC1CCc2ccccc2C1 (stereo not shown) [Example 9, N-[2,6-bis(1-methylethyl)phenyl]-N'-(1,2,3,4-tetrahydro-2-naphthalenyl)urea] | 41
4 | CC(C)c1cccc(C(C)C)c1NC(=O)NC1COc2ccccc2C1 (stereo not shown) [Example 10, N-[2,6-bis(1-methylethyl)phenyl]-N'-(3,4-dihydro-2H-1-benzopyran-3-yl)urea] | 100
5 | Cc1cccc(C)c1NC(=O)NC1CC(C)(C)c2ccccc2C1(C)C (stereo not shown) [Example 12, N-(2,6-dimethylphenyl)-N'-(1,2,3,4-tetrahydro-1,1,4,4-tetramethyl-2-naphthalenyl)urea] | 270
6 | COc1ccc2c(c1)CC(CNC(=O)Nc1c(C(C)C)cccc1C(C)C)CC2 (stereo not shown) [Example 11, N-[2,6-bis(1-methylethyl)phenyl]-N'-[(1,2,3,4-tetrahydro-7-methoxy-2-naphthalenyl)methyl]urea] | 84
7 | CC(C)c1cccc(C(C)C)c1NC(=O)NC1CCOc2ccccc2C1 (stereo not shown) [Example 8, N-[2,6-bis(1-methylethyl)phenyl]-N'-(2,3,4,5-tetrahydrobenzoxepin-4-yl)urea] | 52
